Here are results for 18 compounds from patent US20230026856A1, “HETEROCYCLIC COMPOUNDS AND METHODS OF USE THEREOF” (SPARCBIO LLC, priority 2020, published 2023).

The structures appear in SMILES notation.

One experiment has as its system MIA PaCa-2. As to the kind of experiment: Cell proliferation assay panel (Cell Titer-Glo), MIA PaCa-2. The format is cell-based. The following applies: Homo sapiens, MIA PaCa-2, 72 h. How it is done: Potency of compounds was determined in cell proliferation assays in a panel of cancer cell lines. Cells were seeded in 384-well plates (Corning, Cat. #3765) at specified densities in 40 μL of culture medium and incubated overnight at 37° C. in a 5% CO2 incubator (culture conditions). With a robotic dispenser, serially diluted test compounds were added in a volume of 20 nL DMSO to wells in the culture plate to achieve the final desired concentrations of test compounds, and the cells were further incubated in culture conditions for 72 hr. The assay was terminated by addition of 25 μL of Cell Titer-Glo reagent (Promega, Madison, Wis.) to each well. Contents were mixed, the plate was incubated for 10 min at room temperature and luminescence was measured. The IC50 value of each test compound was calculated with XLFit curve fitting software. Results are shown in Table 4. ‘+++’ indicates IC50 values ≤300 nM, ‘++’ indicates IC50 values between 300 nM-3 μM, and ‘+’ indicates IC50 values ≥3 μM.
In general terms: Cellular ATP, detected with luciferase, serves as a proxy for viable cell number.

The target in the next experiment is KRAS G12C protein (Homo sapiens, UniProt P01116, G12C). Description: Nucleotide exchange assay, Method III (TR-FRET, association of KRAS G12C with Raf-RBD, SOS1-mediated exchange). The conditions noted are these: overnight (18 hr) incubation with GDP-bound KRAS G12C. The format is biochemical. The method, then:
Method III. Inhibition of SOS1-mediated exchange of GDP for GTP on the KRAS G12C protein was measured in a biochemical assay that monitors association of KRAS G12C protein with the Ras-binding domain of Raf (Raf-RBD), where the association is coupled to exchange of GDP to GTP on the KRAS G12C protein. The assay was performed at WuXi AppTec (Shanghai, China). Compounds were serially diluted in 3-fold dilutions to 11 concentrations and spotted into the wells of an assay plate in a total volume of 150 nL DMSO per well. A 2× enzyme mix was prepared by diluting GDP-bound, His-tagged KRAS G12C to 25 nM in assay buffer. 10 μL/well of 2× enzyme mix was added to all wells, and the plate was sealed and incubated overnight (18 hr) at 23° C. 4×SOS1/GDP and 4×SOS1/GTP were prepared in assay buffer. 5 μL/well of 4×SOS1/GDP mix was added to negative control wells, 5 μL/well of 4×SOS1/GTP mix was added to the remaining wells, and the plate was further incubated at 23° C. for 1 hr. Finally, FLAG-tagged Raf-RBD is added to the reaction mixture along with a pair of FRET donor- and acceptor-conjugated antibodies specific for the FLAG-tagged Raf-RBD and His-tagged KRAS G12C proteins. A 4× Raf-RBD/Tb-anti-FLAG/D2-anti-His mix was prepared in assay buffer, and 5 μL/well of the mix was added to all wells, followed by incubation at room temperature for 2 hr. The TR-FRET signals, which increase with association of KRAS G12C and Raf-RBD, were measured on a Perkin Elmer Envision 2104 plate reader, and data were analyzed by non-linear regression to obtain IC50 values for inhibition by compounds. Table 2 includes results of the assay of Method III. ‘+++’ indicates IC50 values ≤300 nM, ‘++’ indicates IC50 values between 300 nM-3 μM, and ‘+’ indicates IC50 values ≥3 μM.

The test system of the next experiment is NCI-H358 cells. Description: 3D cell proliferation assay (Cell Titer-Glo 3D). Format: cell-based. The conditions noted are these: Homo sapiens, NCI-H358, 168 h, NCI-H358, 3D (ultra-low attachment); 7 days. The method, then:
NCI-H358 cells (ATCC® CRL-5807™) were plated in a 384-well Black/Clear Round Bottom Ultra-Low Attachment Microplate (Corning) in medium (RPMI-1640+10% FBS) at a density of 1000 cells in 50 μL per well, then incubated overnight at 37° C. and 5% CO2. Cells were treated with test compounds at 9 concentrations within a specified concentration range (e.g., 0.5 nM-10 μM) for generation of dose response curves. Test compounds were prepared by 1:3 serial dilution in DMSO from a specified starting concentration (e.g., 20 μM, 2 μM or 0.2 μM) and then added to wells of the assay plate in a total volume of 150 nL DMSO. The cells were further incubated at 37° C. and 5% CO2 for 7 days. Cell viability was assessed by adding 40 μL of Cell Titer-Glo® 3D reagent (Cat. No.: G9683, Promega) to each well and reading luminescence after mixing and incubation of the samples. The IC50 value of each test compound was calculated with XLFit curve fitting software.

Sequence of KRAS G12C protein (P01116 1-188 isoform P01116-2 G12C): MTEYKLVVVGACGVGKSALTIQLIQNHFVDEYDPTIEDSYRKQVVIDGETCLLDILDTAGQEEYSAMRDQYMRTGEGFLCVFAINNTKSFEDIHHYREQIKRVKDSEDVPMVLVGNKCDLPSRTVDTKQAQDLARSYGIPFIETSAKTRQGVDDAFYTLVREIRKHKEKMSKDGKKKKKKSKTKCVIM

The IC50 is the concentration at which inhibition is half-maximal. On to `C=CC(=O)N1CCN(c2c(C(=O)NC)c(=O)n(-c3c(C)ccnc3C(C)C)c3nc(-c4c(C)ccc5[nH]ncc45)c(F)cc23)CC1` (single isomer, unassigned) [116 (Isomer A), 4-(4-acryloylpiperazin-1-yl)-6-fluoro-1-(2-isopropyl-4-methylpyridin-3-yl)-N-methyl-7-(5-methyl-1H-indazol-4-yl)-2-oxo-1,2-dihydro-1,8-naphthyridine-3-carboxamide], for which the results for the IC50 with MIA PaCa-2 and on KRAS G12C protein were at least 3000 nM and at most 300 nM, respectively.
As to `C=CC(=O)N1CCN(c2c(C(=O)NC)c(=O)n(-c3c(C)ccnc3C(C)C)c3nc(-c4c(O)cccc4F)c(F)cc23)[C@@H](C)C1` (single isomer, unassigned) [76 (Isomer A)], the IC50 in the experiment on NCI-H358 cells fell in the range of 100 to 2000 nM; on KRAS G12C protein, 300 to 3000 nM.
The corresponding values for `C=CC(=O)N1CCN(c2c(S(C)(=O)=O)c(=O)n(-c3c(C)ccnc3C(C)C)c3nc(-c4c(O)cccc4F)c(F)cc23)[C@@H](C)C1` (single isomer, unassigned) [131 (Isomer A)] are 100 to 2000 nM and 300 to 3000 nM.
The corresponding values for `C=CC(=O)N1CCN(c2c(S(C)(=O)=O)c(=O)n(-c3c(C)ccnc3C(C)C)c3c(F)c(-c4c(O)cccc4F)c(Cl)cc23)CC1` (single isomer, unassigned) [176 (Isomer D), 4-(4-acryloylpiperazin-1-yl)-6-chloro-8-fluoro-7-(2-fluoro-6-hydroxyphenyl)-1-(2-isopropyl-4-methylpyridin-3-yl)-3-(methylsulfonyl)quinolin-2(1H)-one] are at most 100 nM and at most 300 nM.
For the compound `C=CC(=O)N1CCN(c2c(C(=O)NC)c(=O)n(-c3c(C)ccnc3C(C)C)c3nc(-c4c(O)cccc4F)c(F)cc23)CC1` (single isomer, unassigned) [84 (Isomer A), 4-(4-acryloylpiperazin-1-yl)-6-fluoro-7-(2-fluoro-6-hydroxyphenyl)-1-(2-isopropyl-4-methylpyridin-3-yl)-N-methyl-2-oxo-1,2-dihydro-1,8-naphthyridine-3-carboxamide], the results for the 50% inhibitory concentration (IC50) with NCI-H358 cells and at KRAS G12C protein were 100 to 2000 nM and at most 300 nM, respectively.
In the case of `C=CC(=O)N1CCN(c2c(S(C)(=O)=O)c(=O)n(-c3c(C)ccnc3C(C)C)c3nc(-c4cccc5sc(N)nc45)c(F)cc23)C[C@H]1C` (single isomer, unassigned) [249 (Isomer A)], the 50% inhibitory concentration (IC50) in the experiment on MIA PaCa-2 is 300 to 3000 nM; against KRAS G12C protein, at most 300 nM.
Turning to `C=CC(=O)N1CCN(c2c(C(=O)NC)c(=O)n(-c3c(C)ccnc3C(C)C)c3nc(-c4c(O)cccc4F)c(F)cc23)C[C@H]1C` (single isomer, unassigned) [82 (Isomer A)], the IC50 is 100 to 2000 nM in the experiment on NCI-H358 cells and at most 300 nM on KRAS G12C protein.
For `C=CC(=O)N1CCN(c2c(S(C)(=O)=O)c(=O)n(-c3c(C)ccnc3C(C)C)c3c(F)c(-c4cccc5sc(N)nc45)c(Cl)cc23)CC1` (single isomer, unassigned) [252 (Isomer D), 4-(4-acryloylpiperazin-1-yl)-7-(2-aminobenzo[d]thiazol-4-yl)-6-chloro-8-fluoro-1-(2-isopropyl-4-methylpyridin-3-yl)-3-(methylsulfonyl)quinolin-2(1H)-one], in that order: at most 100 nM and at most 300 nM.
Consider `C=CC(=O)N1CCN(c2c(C(=O)NC)c(=O)n(-c3c(C)ccnc3C(C)C)c3nc(-c4c(O)cccc4F)c(F)cc23)C[C@@H]1CC#N` (single isomer, unassigned) [80 (Isomer A)], for which the IC50 in the experiment with NCI-H358 cells was 100 to 2000 nM; against KRAS G12C protein it was at most 300 nM.
With `C=CC(=O)N1CCC(n2c(=O)c(=O)n(-c3c(C)ccnc3C(C)C)c3nc(-c4c(O)cccc4F)c(F)cc32)C(C)C1` (single isomer, unassigned) [294 (Isomer A), 1-(1-acryloyl-3-methylpiperidin-4-yl)-7-fluoro-6-(2-fluoro-6-hydroxyphenyl)-4-(2-isopropyl-4-methylpyridin-3-yl)-1,4-dihydropyrido[2,3-b]pyrazine-2,3-dione], the IC50 against KRAS G12C protein is at least 3000 nM.
With `C=CC(=O)N1CCN(c2c(S(C)(=O)=O)c(=O)n(-c3c(C)ccnc3C(C)C)c3nc(-c4c(O)cccc4F)c(F)cc23)[C@@H](C)C1` (single isomer, unassigned) [131 (Isomer B)], the 50% inhibitory concentration (IC50) against KRAS G12C protein is at least 3000 nM.
For `C=CC(=O)N1CCN(c2c(S(C)(=O)=O)c(=O)n(-c3c(C)ccnc3C(C)C)c3nc(-c4c(O)cccc4F)c(F)cc23)C[C@@H]1CC#N` (single isomer, unassigned) [135 (Isomer B)], the figures for the concentration for half-maximal inhibition (IC50) with NCI-H358 cells and at KRAS G12C protein were 100 to 2000 nM and 300 to 3000 nM, respectively.
With `C=CC(=O)N1CCN(c2c(S(C)(=O)=O)c(=O)n(-c3c(C)ccnc3C(C)C)c3c(F)c(-c4cccc5sc(N)nc45)c(Cl)cc23)CC1` (single isomer, unassigned) [252 (Isomer C), 4-(4-acryloylpiperazin-1-yl)-7-(2-aminobenzo[d]thiazol-4-yl)-6-chloro-8-fluoro-1-(2-isopropyl-4-methylpyridin-3-yl)-3-(methylsulfonyl)quinolin-2(1H)-one], on KRAS G12C protein, the 50% inhibitory concentration (IC50) lay within 300 to 3000 nM.
Turning to `C=CC(=O)N1CCC(n2c(=O)c(=O)n(-c3c(C)ccnc3C(C)C)c3nc(-c4c(O)cccc4F)c(F)cc32)C(C)C1` (single isomer, unassigned) [294 (Isomer E), 1-(1-acryloyl-3-methylpiperidin-4-yl)-7-fluoro-6-(2-fluoro-6-hydroxyphenyl)-4-(2-isopropyl-4-methylpyridin-3-yl)-1,4-dihydropyrido[2,3-b]pyrazine-2,3-dione], the IC50 at KRAS G12C protein is at least 3000 nM.
Regarding `C=CC(=O)N1CCN(c2c(S(C)(=O)=O)c(=O)n(-c3c(C)ccnc3C(C)C)c3c(F)c(-c4c(C)ccc5[nH]ncc45)c(Cl)cc23)CC1` (single isomer, unassigned) [187 (Isomer A), 4-(4-acryloylpiperazin-1-yl)-6-chloro-8-fluoro-1-(2-isopropyl-4-methylpyridin-3-yl)-7-(5-methyl-1H-indazol-4-yl)-3-(methylsulfonyl)quinolin-2(1H)-one], the IC50 at KRAS G12C protein fell in the range of 300 to 3000 nM.
The same measure, in the same setting: the figure for `C=CC(=O)N1CCN(c2c(S(C)(=O)=O)c(=O)n(-c3c(C)ccnc3C(C)C)c3c(F)c(-c4cccc5sc(N)nc45)c(Cl)cc23)CC1` (single isomer, unassigned) [252 (Isomer B), 4-(4-acryloylpiperazin-1-yl)-7-(2-aminobenzo[d]thiazol-4-yl)-6-chloro-8-fluoro-1-(2-isopropyl-4-methylpyridin-3-yl)-3-(methylsulfonyl)quinolin-2(1H)-one] is at most 300 nM.
The compound `C=CC(=O)N1CCN(c2c(S(C)(=O)=O)c(=O)n(-c3c(C)ccnc3C(C)C)c3nc(-c4c(O)cccc4F)c(F)cc23)C[C@@H]1CC#N` (single isomer, unassigned) [135 (Isomer A)] had a concentration for half-maximal inhibition (IC50) on KRAS G12C protein of at least 3000 nM.
On the same count and under the same terms, to `C=CC(=O)N1CCN(c2c(S(C)(=O)=O)c(=O)n(-c3c(C)ccnc3C(C)C)c3nc(-c4c(O)cccc4F)c(F)cc23)CC1` (single isomer, unassigned) [123 (Isomer B), 4-(4-acryloylpiperazin-1-yl)-6-fluoro-7-(2-fluoro-6-hydroxyphenyl)-1-(2-isopropyl-4-methylpyridin-3-yl)-3-(methylsulfonyl)-1,8-naphthyridin-2(1H)-one] belongs 300 to 3000 nM.
